Results from patent US5574006A, “Nasally administrable peptide compositions on hydroxyapatite carriers” (Dott Research Laboratory, priority 1993, dated 1996).

What was measured:
[1] = design: species or system healthy male adults; settings: in vivo
Description: A nasally administrable composition in powdery form was prepared by formulating salmon calcitonin as a physiologically active peptide at the rate of 200 MRC (IU) per 25 mg with hydroxyapatite as a carrier having a mean particle size ranging from 40 to 45 μm.
(§1) The resulting composition was nasally administered once at the dose of 25 mg to six healthy male adults and the blood (2.5 ml) was collected from each of the tested adults prior to administration and then at 5, 10, 15, 20, 30, 45, 60, 90, 120 and 180 minutes after administration. The concentration of the salmon calcitonin in each of the collected blood samples was assayed with a standard RIA assay kit.

[2] = design: species or system healthy male adults; settings: in vivo; remark: listed apart in the source
Description: A nasally administrable composition in powdery form was prepared by formulating salmon calcitonin as a physiologically active peptide at the rate of 200 MRC (IU) per 25 mg with hydroxyapatite as a carrier.
as §1

blood sugar = assay: Average fall of the blood sugar in rabbits after insulin administration; assay type: in vivo, New Zealand rabbits; settings: S.C., 2 IU/rabbit
Description: The resulting composition was nasally administered once to six male New Zealand rabbits. The average fall of the blood sugar was measured and represented in percentage (%) at 0, 15, 30, 60, 120 and 180 minutes after administration. For comparison, 2 (IU)/rabbit of insulin was administered subcutaneously to six male New Zealand rabbits and the average fall of the blood sugar was measured and represented in […] (%) at 0, 60, 120, 240 and 360 minutes after administration.

hydroxyapatite
absorption of calcitonin (in words) [1]: effective to attain better absorption of calcitonin | absorption of calcitonin through the nasal cavity (in words) [2]: effective to attain better absorption of calcitonin through the nasal cavity

insulin [Comparison]
Average fall of the blood sugar (blood sugar; 0 min): 100% | Average fall of the blood sugar (blood sugar; 60 min): 57% | Average fall of the blood sugar (blood sugar; 120 min): 56% | Average fall of the blood sugar (blood sugar; 240 min): 84% | Average fall of the blood sugar (blood sugar; 360 min): 94%
